In PubChem BioAssay AID1963977 (Molecular Pharmacology Branch, DTP, NCI, 2024):
Several values for one entry are separate records, joined by “and”; a condition that tells them apart may be missing. Equal entries are not always repeated.

Tested on: 624824-186-R-J3-PDC multicell spheroids, viability
Test: Anticancer human tumor 624824-186-R-J3-PDC patient-derived colon adenocarcinoma cell line growth inhibition [PI3K]
Conditions: for viability, T/C: stronger effect = lower value
Summary of the method: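 Multi-cell spheroids combine tumor cells with HUVEC and human MSCs, treated with targeted agents alone or with inavolisib, alpelisib, duvelisib or copanlisib. Concentrations fall in half-log steps from at or near clinical Cmax, or from 10 microM where Cmax is unknown; viability read-out.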

[1] = curve of first compound, second compound 0.0316 µM
[2] = curve of first compound, second compound 0.1 µM
[3] = curve of first compound, second compound 0.316 µM
[4] = curve of first compound, second compound 1 µM
[5] = second compound 0.0316 µM, first compound 0.0316 µM
[6] = second compound 0.0316 µM, first compound 0.1 µM
[7] = second compound 0.0316 µM, first compound 0.316 µM
[8] = second compound 0.0316 µM, first compound 1 µM
[9] = second compound 0.0316 µM, first compound 3.16 µM
[10] = second compound 0.0316 µM, first compound 10 µM
[11] = second compound 0.1 µM, first compound 0.0316 µM
[12] = second compound 0.1 µM, first compound 0.1 µM
[13] = second compound 0.1 µM, first compound 0.316 µM
[14] = second compound 0.1 µM, first compound 1 µM
[15] = second compound 0.1 µM, first compound 3.16 µM
[16] = second compound 0.1 µM, first compound 10 µM
[17] = second compound 0.316 µM, first compound 0.0316 µM
[18] = second compound 0.316 µM, first compound 0.1 µM
[19] = second compound 0.316 µM, first compound 0.316 µM
[20] = second compound 0.316 µM, first compound 1 µM
[21] = second compound 0.316 µM, first compound 3.16 µM
[22] = second compound 0.316 µM, first compound 10 µM
[23] = second compound 1 µM, first compound 0.0316 µM
[24] = second compound 1 µM, first compound 0.1 µM
[25] = second compound 1 µM, first compound 0.316 µM
[26] = second compound 1 µM, first compound 1 µM
[27] = second compound 1 µM, first compound 3.16 µM
[28] = second compound 1 µM, first compound 10 µM
[29] = curve of first compound, second compound 3.16 µM
[30] = curve of first compound, second compound 10 µM
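Further: spheroids exposed to agents for seven days before luminescence read.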
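Wherever viability, T/C is given: luminescent signal used as a stand-in for spheroid viability; percent viability relative to DMSO vehicle control wells taken as 100%.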

SMILES: CC(C)n1nc(-c2ccc3oc(N)nc3c2)c2c(N)ncnc21
- viability, T/C (compound 0.000316 µM): 103% [middle of 4 runs]
- viability, T/C (compound 0.001 µM): 104% and 97.2% and 101% (2×)
- viability, T/C (compound 0.00316 µM): 106% [middle of 4 runs]
- viability, T/C (compound 0.01 µM): 108% [middle of 4 runs]
- viability, T/C (compound 0.0316 µM): 99.4% [middle of 4 runs]
- viability, T/C (compound 0.1 µM): 64.2% [middle of 4 runs]
- IC50 (curve of compound): > 100 nM

SMILES: CC(Cn1ccc(-c2ccc(C#N)c(Cl)c2)n1)NC(=O)c1cc(C(C)O)[nH]n1 (stereo not given) + CC(Nc1ccc2c(c1)OCCn1cc(N3C(=O)OCC3C(F)F)nc1-2)C(N)=O
- IC50 (curve of first compound, second compound 0.00316 µM): > 10000 nM
- IC50 (curve of first compound, second compound 0.01 µM): > 10000 nM
- IC50 [1]: > 10000 nM
- IC50 [2]: > 10000 nM
- IC50 [3]: > 10000 nM
- IC50 [4]: > 10000 nM
- viability, T/C (second compound 0.00316 µM, first compound 0.0316 µM): 98.3%
- viability, T/C (second compound 0.00316 µM, first compound 0.1 µM): 98.6%
- viability, T/C (second compound 0.00316 µM, first compound 0.316 µM): 94.7%
- viability, T/C (second compound 0.00316 µM, first compound 1 µM): 92.7%
- viability, T/C (second compound 0.00316 µM, first compound 3.16 µM): 94.6%
- viability, T/C (second compound 0.00316 µM, first compound 10 µM): 103%
- viability, T/C (second compound 0.01 µM, first compound 0.0316 µM): 93%
- viability, T/C (second compound 0.01 µM, first compound 0.1 µM): 100%
- viability, T/C (second compound 0.01 µM, first compound 0.316 µM): 115%
- viability, T/C (second compound 0.01 µM, first compound 1 µM): 101%
- viability, T/C (second compound 0.01 µM, first compound 3.16 µM): 103%
- viability, T/C (second compound 0.01 µM, first compound 10 µM): 95.5%
- viability, T/C [5]: 110%
- viability, T/C [6]: 96.4%
- viability, T/C [7]: 97.4%
- viability, T/C [8]: 107%
- viability, T/C [9]: 112%
- viability, T/C [10]: 99%
- viability, T/C [11]: 101%
- viability, T/C [12]: 97.5%
- viability, T/C [13]: 93.3%
- viability, T/C [14]: 102%
- viability, T/C [15]: 102%
- viability, T/C [16]: 91%
- viability, T/C [17]: 94.2%
- viability, T/C [18]: 96%
- viability, T/C [19]: 101%
- viability, T/C [20]: 91.4%
- viability, T/C [21]: 91.5%
- viability, T/C [22]: 77.8%
- viability, T/C [23]: 87.6%
- viability, T/C [24]: 88.2%
- viability, T/C [25]: 83.8%
- viability, T/C [26]: 88.7%
- viability, T/C [27]: 81.9%
- viability, T/C [28]: 79.1%

SMILES: CC1(C)CCC(Nc2ncc(C(F)(F)F)c(-c3c[nH]c4c(P(C)(C)=O)c(C#N)ccc34)n2)CN1 (stereo not given)
- viability, T/C (compound 0.0316 µM): 106% [middle of 4 runs]
- viability, T/C (compound 0.1 µM): 87.3% [middle of 4 runs]
- viability, T/C (compound 0.316 µM): 96.5% [middle of 4 runs]
- viability, T/C (compound 1 µM): 96.9% [middle of 4 runs]
- viability, T/C (compound 3.16 µM): 100% [middle of 4 runs]
- viability, T/C (compound 10 µM): 4.6% [middle of 4 runs]
- IC50 (curve of compound): 5.64 µM [middle of 4 runs]

SMILES: Cn1cnc2c(F)c(Nc3ccc(Br)cc3Cl)c(C(=O)NOCCO)cc21 + Cc1nc(NC(=O)N2CCCC2C(N)=O)sc1-c1ccnc(C(C)(C)C(F)(F)F)c1
- IC50 [1]: 1890 nM
- IC50 [2]: 884 nM
- IC50 [3]: 515 nM
- IC50 [4]: 207 nM
- IC50 [29]: 48.4 nM
- IC50 [30]: 14.9 nM
- viability, T/C (second compound 0.0316 µM, first compound 0.00949 µM): 116%
- viability, T/C (second compound 0.0316 µM, first compound 0.03 µM): 104%
- viability, T/C (second compound 0.0316 µM, first compound 0.0949 µM): 89%
- viability, T/C (second compound 0.0316 µM, first compound 0.3 µM): 82.1%
- viability, T/C (second compound 0.0316 µM, first compound 0.949 µM): 62.8%
- viability, T/C (second compound 0.0316 µM, first compound 3 µM): 40.5%
- viability, T/C (second compound 0.1 µM, first compound 0.00949 µM): 105%
- viability, T/C (second compound 0.1 µM, first compound 0.03 µM): 98.1%
- viability, T/C (second compound 0.1 µM, first compound 0.0949 µM): 94.6%
- viability, T/C (second compound 0.1 µM, first compound 0.3 µM): 68%
- viability, T/C (second compound 0.1 µM, first compound 0.949 µM): 50.9%
- viability, T/C (second compound 0.1 µM, first compound 3 µM): 31.6%
- viability, T/C (second compound 0.316 µM, first compound 0.00949 µM): 114%
- viability, T/C (second compound 0.316 µM, first compound 0.03 µM): 98.2%
- viability, T/C (second compound 0.316 µM, first compound 0.0949 µM): 85.5%
- viability, T/C (second compound 0.316 µM, first compound 0.3 µM): 59.9%
- viability, T/C (second compound 0.316 µM, first compound 0.949 µM): 37.7%
- viability, T/C (second compound 0.316 µM, first compound 3 µM): 22.4%
- viability, T/C (second compound 1 µM, first compound 0.00949 µM): 97.3%
- viability, T/C (second compound 1 µM, first compound 0.03 µM): 91.5%
- viability, T/C (second compound 1 µM, first compound 0.0949 µM): 67.7%
- viability, T/C (second compound 1 µM, first compound 0.3 µM): 40.1%
- viability, T/C (second compound 1 µM, first compound 0.949 µM): 24.9%
- viability, T/C (second compound 1 µM, first compound 3 µM): 12.5%
- viability, T/C (second compound 3.16 µM, first compound 0.00949 µM): 73.8%
- viability, T/C (second compound 3.16 µM, first compound 0.03 µM): 60.4%
- viability, T/C (second compound 3.16 µM, first compound 0.0949 µM): 36.2%
- viability, T/C (second compound 3.16 µM, first compound 0.3 µM): 22.6%
- viability, T/C (second compound 3.16 µM, first compound 0.949 µM): 17.3%
- viability, T/C (second compound 3.16 µM, first compound 3 µM): 6.56%
- viability, T/C (second compound 10 µM, first compound 0.00949 µM): 56%
- viability, T/C (second compound 10 µM, first compound 0.03 µM): 42.2%
- viability, T/C (second compound 10 µM, first compound 0.0949 µM): 21.4%
- viability, T/C (second compound 10 µM, first compound 0.3 µM): 16%
- viability, T/C (second compound 10 µM, first compound 0.949 µM): 5.42%
- viability, T/C (second compound 10 µM, first compound 3 µM): 1.91%

SMILES: CC(C)NCC(C(=O)N1CCN(c2ncnc3c2C(C)CC3O)CC1)c1ccc(Cl)cc1 (stereo not given) + Cc1nc(NC(=O)N2CCCC2C(N)=O)sc1-c1ccnc(C(C)(C)C(F)(F)F)c1
- IC50 [1]: 5340 nM
- IC50 [2]: 5110 nM
- IC50 [3]: 4590 nM
- IC50 [4]: 2850 nM
- IC50 [29]: 2030 nM
- IC50 [30]: 1420 nM
- viability, T/C [5]: 108%
- viability, T/C [6]: 108%
- viability, T/C [7]: 99%
- viability, T/C [8]: 78.2%
- viability, T/C [9]: 59.8%
- viability, T/C [10]: 39.7%
- viability, T/C [11]: 107%
- viability, T/C [12]: 92.8%
- viability, T/C [13]: 93.2%
- viability, T/C [14]: 77.1%
- viability, T/C [15]: 53.2%
- viability, T/C [16]: 43.2%
- viability, T/C [17]: 104%
- viability, T/C [18]: 104%
- viability, T/C [19]: 91.1%
- viability, T/C [20]: 75.8%
- viability, T/C [21]: 53.3%
- viability, T/C [22]: 41.9%
- viability, T/C [23]: 95.5%
- viability, T/C [24]: 105%
- viability, T/C [25]: 86.8%
- viability, T/C [26]: 72.6%
- viability, T/C [27]: 46.5%
- viability, T/C [28]: 39.5%
- viability, T/C (second compound 3.16 µM, first compound 0.0316 µM): 86.8%
- viability, T/C (second compound 3.16 µM, first compound 0.1 µM): 77.4%
- viability, T/C (second compound 3.16 µM, first compound 0.316 µM): 79.8%
- viability, T/C (second compound 3.16 µM, first compound 1 µM): 59%
- viability, T/C (second compound 3.16 µM, first compound 3.16 µM): 44.2%
- viability, T/C (second compound 3.16 µM, first compound 10 µM): 32.1%
- viability, T/C (second compound 10 µM, first compound 0.0316 µM): 68.1%
- viability, T/C (second compound 10 µM, first compound 0.1 µM): 64.9%
- viability, T/C (second compound 10 µM, first compound 0.316 µM): 70.8%
- viability, T/C (second compound 10 µM, first compound 1 µM): 52.5%
- viability, T/C (second compound 10 µM, first compound 3.16 µM): 41.2%
- viability, T/C (second compound 10 µM, first compound 10 µM): 32.8%
